The subject of one data set is Enterococcus faecium. The experiment in a line: Antibacterial activity against Streptococcus faecium MD 8b. The format is functional.
For a further data set, the system named is Staphylococcus aureus. The data set is described as follows: Antibacterial activity against Staphylococcus aureus SG 511. The format is functional.
Data set [1] can be described thus: Antibacterial activity against Enterobacter cloacae 1321E. In kind it is functional.
Data set [2] relates to Pseudomonas aeruginosa. The data set is described as follows: microbe, parasite or virus in culture. In kind it is functional.
Description: Compound was evaluated for antibacterial activity against Pseudomonas aeruginosa 1592E
A further data set deals with Klebsiella aerogenes. The data set is described as follows: Antibacterial activity against Klebsiella aerogenes 1522E. In kind it is functional.
Data set [3] has as its system Pseudomonas aeruginosa. The experiment in a line: microbe, parasite or virus in culture. The format is functional. This is another data set of the same source.
Description: Antibacterial activity against Pseudomonas aeruginosa 1771M
The subject of the next data set is Salmonella typhimurium. The data set is described as follows: Antibacterial activity against Salmonella Typhimurium. In kind it is functional, Salmonella enterica subsp. enterica serovar Typhimurium. Conditions: Salmonella enterica.
Data set [4] relates to Streptococcus pyogenes. The experiment in a line: Antibacterial activity against Streptococcus pyogenes 77A. The format is functional.
For data set [5], the system named is Escherichia coli. The data set is described as follows: microbe, parasite or virus in culture. In kind it is functional.
Description: Antibacterial activity against Escherichia coli 1507E
Data set [6] deals with T1, Dipeptidase 1 (Sus scrofa) (UniProt P22412).
T1 sequence (whole entry): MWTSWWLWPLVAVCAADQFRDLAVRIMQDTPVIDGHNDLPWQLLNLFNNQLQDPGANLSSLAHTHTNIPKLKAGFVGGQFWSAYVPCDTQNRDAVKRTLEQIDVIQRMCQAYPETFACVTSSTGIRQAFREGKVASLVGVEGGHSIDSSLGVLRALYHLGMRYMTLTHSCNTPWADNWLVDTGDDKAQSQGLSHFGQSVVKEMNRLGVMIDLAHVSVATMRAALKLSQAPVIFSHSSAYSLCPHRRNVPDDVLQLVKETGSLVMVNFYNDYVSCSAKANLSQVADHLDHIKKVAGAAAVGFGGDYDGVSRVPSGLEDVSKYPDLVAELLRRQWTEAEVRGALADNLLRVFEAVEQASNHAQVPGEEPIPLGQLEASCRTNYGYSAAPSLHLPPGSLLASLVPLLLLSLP
The data set is described as follows: Compound was evaluated for relative rate of hydrolysis to imipenem by partially purified porcine renal Dehydropeptidase-1. Details: scale not given: the % may be the effect or the level left.

In data set [7] the test system is Streptococcus pyogenes. The experiment in a line: Compound was tested for in vivo protective activity against Streptococcus pyogenes 77A at a single subcutaneous administration in mice. Conditions: sc, read-out: PD50. The format is functional.
In data set [8] the test system is Escherichia coli. The data set is described as follows: Compound was tested for in vivo protective activity against Escherichia coli 078 at a single subcutaneous administration in mice. The format is functional. Conditions: sc, read-out: PD50.
The nature of data set [9]: Time taken by the compound to reach maximum concentration. In kind it is ADME.
In data set [10] the test system is Pseudomonas aeruginosa. The experiment in a line: Compound was tested for in vivo protective activity against Pseudomonas aeruginosa 1771M at a single subcutaneous administration in mice. The format is functional. Conditions: sc, read-out: PD50.

Structures are written as SMILES. In brackets after ≈: the same amount, converted by molar mass.

On to `C[C@@H](O)[C@H]1C(=O)N2C(C(=O)O)=C(S[C@@H]3CN[C@H](C(=O)NCCS(=O)(=O)N4CCOCC4)C3)[C@H](C)[C@H]12`, for which the MIC was determined as 12.5 µg/mL (≈ 23.5 µM) against Enterococcus faecium; 0.391 µg/mL (≈ 0.734 µM) in the data set with Staphylococcus aureus; 0.049 µg/mL (≈ 0.092 µM) in data set [1]; 50 µg/mL (≈ 93.9 µM) in the data set with Pseudomonas aeruginosa [2]; 0.098 µg/mL (≈ 0.184 µM) with Klebsiella aerogenes; 1.56 µg/mL (≈ 2.93 µM) against Pseudomonas aeruginosa [3]. Moreover, the MIC against Salmonella typhimurium was 0.098 µg/mL (≈ 0.184 µM); with Streptococcus pyogenes [4] it was 0.013 µg/mL (≈ 0.0244 µM); with Escherichia coli [5] it was 0.049 µg/mL (≈ 0.092 µM).

On to `C[C@@H](O)[C@H]1C(=O)N2C(C(=O)O)=C(SCCNC=N)C[C@H]12` [IMIPENEM ANHYDROUS], for which the MIC with Enterococcus faecium turned out to be 1.56 µg/mL (≈ 5.22 µM); with Staphylococcus aureus, 0.013 µg/mL (≈ 0.0434 µM); in data set [1], 0.195 µg/mL (≈ 0.651 µM); in the data set with Pseudomonas aeruginosa [2], 0.781 µg/mL (≈ 2.61 µM); with Klebsiella aerogenes, 0.391 µg/mL (≈ 1.31 µM); in the data set on Pseudomonas aeruginosa [3], 0.195 µg/mL (≈ 0.651 µM). Moreover, the MIC in the data set on Salmonella typhimurium was determined as 0.781 µg/mL (≈ 2.61 µM); in the data set with Streptococcus pyogenes [4], 0.004 µg/mL (≈ 0.0134 µM); in the data set on Escherichia coli [5], 0.195 µg/mL (≈ 0.651 µM). Besides, in [6], the Stability was determined as 10000%.

Consider `C[C@@H](O)[C@H]1C(=O)N2C(C(=O)O)=C(S[C@@H]3CN[C@H](C(=O)NCCS(=O)(=O)NCCO)C3)[C@H](C)[C@H]12`, for which the MIC with Enterococcus faecium came out at 12.5 µg/mL (≈ 24.7 µM); with Staphylococcus aureus it was 0.195 µg/mL (≈ 0.385 µM); in data set [1], 0.025 µg/mL (≈ 0.0493 µM); against Pseudomonas aeruginosa [2] it was 0.391 µg/mL (≈ 0.772 µM); with Klebsiella aerogenes it was 0.049 µg/mL (≈ 0.0967 µM); in the data set with Pseudomonas aeruginosa [3], 0.391 µg/mL (≈ 0.772 µM). The values for the MIC in the data set on Salmonella typhimurium, in the data set with Streptococcus pyogenes [4] and in the data set with Escherichia coli [5] were 0.049 µg/mL (≈ 0.0967 µM), 0.007 µg/mL (≈ 0.0138 µM) and 0.025 µg/mL (≈ 0.0493 µM), respectively.

Turning to `CNC(=O)CCNC(=O)[C@@H]1C[C@H](SC2=C(C(=O)O)N3C(=O)[C@H]([C@@H](C)O)[C@H]3[C@H]2C)CN1`, the MIC in the data set with Enterococcus faecium is 12.5 µg/mL (≈ 28.4 µM); in the data set on Staphylococcus aureus it was 0.391 µg/mL (≈ 0.888 µM); in data set [1], 0.025 µg/mL (≈ 0.0568 µM); against Pseudomonas aeruginosa [2], 0.781 µg/mL (≈ 1.77 µM); against Klebsiella aerogenes, 0.049 µg/mL (≈ 0.111 µM); against Pseudomonas aeruginosa [3], 0.391 µg/mL (≈ 0.888 µM). Further, the MIC with Salmonella typhimurium stood at 0.049 µg/mL (≈ 0.111 µM); with Streptococcus pyogenes [4], 0.013 µg/mL (≈ 0.0295 µM); against Escherichia coli [5], 0.025 µg/mL (≈ 0.0568 µM).

For the compound `C[C@@H](O)[C@H]1C(=O)N2C(C(=O)O)=C(S[C@@H]3CN[C@H](C(=O)NCCS(N)(=O)=O)C3)[C@H](C)[C@H]12`, the MIC against Enterococcus faecium is 6.25 µg/mL (≈ 13.5 µM); against Staphylococcus aureus it was 0.098 µg/mL (≈ 0.212 µM); in data set [1], 0.025 µg/mL (≈ 0.054 µM); in the data set with Pseudomonas aeruginosa [2], 0.195 µg/mL (≈ 0.422 µM); against Klebsiella aerogenes, 0.049 µg/mL (≈ 0.106 µM); with Pseudomonas aeruginosa [3], 0.195 µg/mL (≈ 0.422 µM). For the same compound, the MIC is 0.025 µg/mL (≈ 0.054 µM) with Salmonella typhimurium, 0.004 µg/mL (≈ 0.00865 µM) in the data set with Streptococcus pyogenes [4] and 0.013 µg/mL (≈ 0.0281 µM) against Escherichia coli [5]. The compound further showed a Stability in data set [6] of 2400%. Further, the ED50 with Streptococcus pyogenes [7] was determined as 2.31 mg/kg; in the data set with Escherichia coli [8] it was 0.47 mg/kg; in the data set with Pseudomonas aeruginosa [10], 2.6 mg/kg. For the same compound, the time to peak (Tmax) in [9] is less than 19.8 min.

With `COC(=O)CCNC(=O)[C@@H]1C[C@H](SC2=C(C(=O)O)N3C(=O)[C@H]([C@@H](C)O)[C@H]3[C@H]2C)CN1`, the MIC is 12.5 µg/mL (≈ 28.3 µM) in the data set with Enterococcus faecium; 0.195 µg/mL (≈ 0.442 µM) in the data set on Staphylococcus aureus; 0.025 µg/mL (≈ 0.0566 µM) in data set [1]; 1.56 µg/mL (≈ 3.54 µM) with Pseudomonas aeruginosa [2]; 0.049 µg/mL (≈ 0.111 µM) in the data set on Klebsiella aerogenes; 0.195 µg/mL (≈ 0.442 µM) in the data set with Pseudomonas aeruginosa [3]. Besides, the MIC turned out to be 0.049 µg/mL (≈ 0.111 µM) with Salmonella typhimurium, 0.007 µg/mL (≈ 0.0159 µM) against Streptococcus pyogenes [4] and 0.025 µg/mL (≈ 0.0566 µM) against Escherichia coli [5].

Consider `C[C@@H](O)[C@H]1C(=O)N2C(C(=O)O)=C(S[C@@H]3CN[C@H](C(=O)NCCC(=O)N(C)C)C3)[C@H](C)[C@H]12`, for which the MIC was found to be 12.5 µg/mL (≈ 27.5 µM) in the data set with Enterococcus faecium; 0.195 µg/mL (≈ 0.429 µM) in the data set with Staphylococcus aureus; 0.025 µg/mL (≈ 0.055 µM) in data set [1]; 1.56 µg/mL (≈ 3.44 µM) with Pseudomonas aeruginosa [2]; 0.049 µg/mL (≈ 0.108 µM) in the data set with Klebsiella aerogenes; 0.391 µg/mL (≈ 0.86 µM) in the data set on Pseudomonas aeruginosa [3]. The MIC against Salmonella typhimurium came to 0.049 µg/mL (≈ 0.108 µM); against Streptococcus pyogenes [4] it was 0.007 µg/mL (≈ 0.0154 µM); in the data set with Escherichia coli [5], 0.025 µg/mL (≈ 0.055 µM).

With `C[C@@H](O)[C@H]1C(=O)N2C(C(=O)O)=C(S[C@@H]3CN[C@H](C(=O)NCCS(=O)(=O)N(C)CCO)C3)[C@H](C)[C@H]12`, the MIC against Enterococcus faecium worked out at 12.5 µg/mL (≈ 24 µM); with Staphylococcus aureus, 0.391 µg/mL (≈ 0.751 µM); in data set [1], 0.025 µg/mL (≈ 0.048 µM); with Pseudomonas aeruginosa [2], 1.56 µg/mL (≈ 3 µM); in the data set with Klebsiella aerogenes, 0.049 µg/mL (≈ 0.0941 µM); against Pseudomonas aeruginosa [3] it was 0.781 µg/mL (≈ 1.5 µM). For the same compound, the figures for the MIC against Salmonella typhimurium, against Streptococcus pyogenes [4] and against Escherichia coli [5] were 0.049 µg/mL (≈ 0.0941 µM), 0.013 µg/mL (≈ 0.025 µM) and 0.025 µg/mL (≈ 0.048 µM), respectively.

As for `C[C@@H](O)[C@H]1C(=O)N2C(C(=O)O)=C(S[C@@H]3CN[C@H](C(=O)NCCC(=O)NCCO)C3)[C@H](C)[C@H]12`, the MIC against Enterococcus faecium was 12.5 µg/mL (≈ 26.6 µM); against Staphylococcus aureus, 0.391 µg/mL (≈ 0.831 µM); in data set [1], 0.025 µg/mL (≈ 0.0531 µM); in the data set with Pseudomonas aeruginosa [2], 0.391 µg/mL (≈ 0.831 µM); in the data set on Klebsiella aerogenes it was 0.098 µg/mL (≈ 0.208 µM); in the data set with Pseudomonas aeruginosa [3], 0.391 µg/mL (≈ 0.831 µM). The MIC with Salmonella typhimurium was determined as 0.098 µg/mL (≈ 0.208 µM); against Streptococcus pyogenes [4], 0.007 µg/mL (≈ 0.0149 µM); against Escherichia coli [5], 0.049 µg/mL (≈ 0.104 µM).

The values above are taken from ChEMBL document CHEMBL1130853, “Synthesis and biological properties of new 1 beta-methylcarbapenems” (Bioorg Med Chem Lett, 1998).
